Results published in PMC7470090, “Identification of probe-quality degraders for Poly(ADP-ribose) polymerase-1 (PARP-1)” (Journal of Enzyme Inhibition and Medicinal Chemistry, 2020).

biological target: T1, PARP-1 (Homo sapiens, UniProt P09874); experiment: cell-free PARP-1 inhibition assay, dose-response; format: biochemical
T1 construct: gene PARP1
T1 sequence (P09874 2-1014): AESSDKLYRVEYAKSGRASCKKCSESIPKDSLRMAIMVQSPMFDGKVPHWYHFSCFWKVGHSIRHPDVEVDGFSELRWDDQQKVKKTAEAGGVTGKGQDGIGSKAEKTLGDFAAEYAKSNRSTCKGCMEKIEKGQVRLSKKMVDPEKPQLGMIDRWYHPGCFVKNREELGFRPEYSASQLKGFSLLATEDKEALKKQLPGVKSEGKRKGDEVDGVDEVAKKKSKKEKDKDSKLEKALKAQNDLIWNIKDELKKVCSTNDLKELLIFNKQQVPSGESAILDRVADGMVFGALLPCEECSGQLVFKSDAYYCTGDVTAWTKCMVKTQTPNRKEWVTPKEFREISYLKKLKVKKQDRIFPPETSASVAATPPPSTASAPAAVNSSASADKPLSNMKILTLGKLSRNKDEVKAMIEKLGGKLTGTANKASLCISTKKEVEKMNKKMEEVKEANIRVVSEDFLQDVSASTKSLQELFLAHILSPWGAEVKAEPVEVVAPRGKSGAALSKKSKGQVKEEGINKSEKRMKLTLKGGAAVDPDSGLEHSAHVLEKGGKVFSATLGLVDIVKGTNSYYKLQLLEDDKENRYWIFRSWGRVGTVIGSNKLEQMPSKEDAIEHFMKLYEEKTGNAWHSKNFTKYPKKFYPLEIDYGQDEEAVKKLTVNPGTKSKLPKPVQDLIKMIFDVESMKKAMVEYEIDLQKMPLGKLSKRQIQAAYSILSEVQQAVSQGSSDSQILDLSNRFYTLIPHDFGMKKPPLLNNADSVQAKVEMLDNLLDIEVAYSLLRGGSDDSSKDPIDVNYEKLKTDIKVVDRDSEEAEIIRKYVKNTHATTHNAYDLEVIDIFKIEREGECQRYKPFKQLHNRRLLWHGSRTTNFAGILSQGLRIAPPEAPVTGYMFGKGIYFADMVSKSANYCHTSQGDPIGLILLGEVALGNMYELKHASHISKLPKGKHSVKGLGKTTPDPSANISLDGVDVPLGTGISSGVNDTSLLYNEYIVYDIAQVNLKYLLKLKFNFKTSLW

IC50	Structure (SMILES)
71.3 nM	O=C1CCC(N2Cc3c(NC(=O)CCCCCCCNC(=O)c4cc(Cc5n[nH]c(=O)c6ccccc56)ccc4F)cccc3C2=O)C(=O)N1 (stereo not drawn) [compound 1, N-(8-((2–(2,6-dioxopiperidin-3-yl)-1-oxoisoindolin-4-yl)amino)-8-oxooctyl)-2-fluoro-5-((4-oxo-3,4-dihydrophthalazin-1-yl)methyl)benzamide]
54.7 nM	O=C1CCC(N2Cc3c(NC(=O)CCCCCCCCCCNC(=O)c4cc(Cc5n[nH]c(=O)c6ccccc56)ccc4F)cccc3C2=O)C(=O)N1 (stereo not drawn) [compound 2, N-(11-((2–(2,6-dioxopiperidin-3-yl)-1-oxoisoindolin-4-yl)amino)-11-oxoundecyl)-2-fluoro-5-((4-oxo-3,4-dihydrophthalazin-1-yl)methyl)benzamide]
20.7 nM	O=C1CCC(N2Cc3c(NC(=O)CCCCCCCCCCCNC(=O)c4cc(Cc5n[nH]c(=O)c6ccccc56)ccc4F)cccc3C2=O)C(=O)N1 (stereo not drawn) [compound 3, N-(12-((2–(2,6-dioxopiperidin-3-yl)-1-oxoisoindolin-4-yl)amino)-12-oxododecyl)-2-fluoro-5-((4-oxo-3,4-dihydrophthalazin-1-yl)methyl)benzamide]
